# From patent publication US20230059009A1, “INHIBITORS OF LIN28 AND METHODS OF USE THEREOF” (The Regents of the University of California, priority 2019, published 2023)
# What was measured:
# [1] = biological target: T1, LIN28B/pre-let-7a-2 binding (Homo sapiens, UniProt Q6ZN17); experiment: FRET assay, EGFP-tagged LIN28B and BHQ-1 labelled pre-let-7a-2; conditions: doses 1.25 uM-20 uM; compared with LN1632
# T1 construct: made in house; host or cells: stably transduced HEK cells; used as diluted protein lysate, not purified
# T1 sequence (Q6ZN17 1-250): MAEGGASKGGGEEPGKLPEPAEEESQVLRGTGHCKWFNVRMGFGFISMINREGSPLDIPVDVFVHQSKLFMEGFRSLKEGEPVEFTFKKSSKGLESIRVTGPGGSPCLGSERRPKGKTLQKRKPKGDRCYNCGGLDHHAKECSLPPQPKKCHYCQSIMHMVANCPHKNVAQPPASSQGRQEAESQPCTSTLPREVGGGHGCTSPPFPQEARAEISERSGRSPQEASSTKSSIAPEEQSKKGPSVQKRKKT
# Method: As described herein, compounds of formula (I) and (II) show Lin28/let-7 inhibitory activity in FRET assays in vitro and in LSCs and LSC-like Kasumi-1 cells. FRET assay was performed as previously described (51).
# In order to improve binding and inhibitory capacity of a compound to LIN28b, we predicted the binding mode of LN1632 to LIN28B. […] With this model in hand, we synthesized novel compounds with improved binding capacity to Lin28b (JGJ002-JGJ008, FIG. 8). Compounds were screened using a previously described FRET-assay with an EGFP-tagged LIN28B as donor and a BHQ-1 quencher labelled pre-let-7a-2 (pre-let-7a-2-BHQ1) as acceptor (51). Briefly, recombinant LIN28B-EGFP was harvested from stably transduced HEK cells and diluted with binding buffer (300 mM NaCl, 25 mM HEPES pH 7.2, 10 μM ZnCl2, 1% Odyssey Blocking Buffer, 0.05% Tween 20, 0.5 mM TCEP) in order to adjust ideal FRET-quenching signal intensity. Protein lysate and compounds (JGJ001-JGJ008) were pre-incubated in doses ranging from 1.25 uM-20 uM for 20 min in 100 uL diluted protein lysate. Subsequently pre-let-7a-2-BHQ1 was added to the mixture (at 6.25 nM) and EGFP-LIN28B donor emission was measured using a Tecan Spark Plate Reader ([…], excitation at 488 nm, emission read-out at […], 30 flashes/s). […] Increased endogenous let-7 miRNA levels can target a panoply of LCS and cancer stem cell hallmark genes thus inhibiting tumor growth.
# (§1) To test the structure-activity relationship, 39 LN1632-related analogs (JGJ001-39) were synthesized and their potency and specificity to inhibit LIN28B-RNA binding activity and upregulate mature let-7 miRNA levels was measured. […] The dual luciferase reporter assay was performed as previously described (89).
# mature let-7 miRNAs = experiment: Dual luciferase reporter assay of mature let-7 miRNAs in HepG2 cells; type: cell-based; conditions: 3-10 μM, compared with LN1632
# Method: as §1
# CYP 2C19 = CYP 2C19 (Homo sapiens, UniProt P33261); experiment: CYP inhibition 2C19; type: in vitro ADME; set-up: unit not given here; conditions: Conc. 10 uM
# Chain of CYP 2C19 (P33261 whole entry): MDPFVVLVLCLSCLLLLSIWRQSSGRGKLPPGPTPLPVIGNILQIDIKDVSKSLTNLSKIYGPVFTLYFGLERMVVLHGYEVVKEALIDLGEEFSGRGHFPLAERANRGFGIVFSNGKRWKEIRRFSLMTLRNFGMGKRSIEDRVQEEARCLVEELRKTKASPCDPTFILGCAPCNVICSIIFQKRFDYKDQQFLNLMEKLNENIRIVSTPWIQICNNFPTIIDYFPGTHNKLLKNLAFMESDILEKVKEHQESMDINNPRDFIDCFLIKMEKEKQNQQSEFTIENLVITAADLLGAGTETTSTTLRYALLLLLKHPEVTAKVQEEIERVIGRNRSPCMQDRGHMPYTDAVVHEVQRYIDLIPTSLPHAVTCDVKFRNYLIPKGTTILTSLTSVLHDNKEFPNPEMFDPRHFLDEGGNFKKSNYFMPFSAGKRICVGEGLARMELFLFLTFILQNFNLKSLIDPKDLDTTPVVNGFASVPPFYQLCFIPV
# CYP 1A2 = biological target: T2, CYP 1A2 (Homo sapiens, UniProt P05177); experiment: CYP inhibition 1A2; type: in vitro ADME; set-up: unit not given here; conditions: Conc. 10 uM
# T2 sequence (P05177 1-516): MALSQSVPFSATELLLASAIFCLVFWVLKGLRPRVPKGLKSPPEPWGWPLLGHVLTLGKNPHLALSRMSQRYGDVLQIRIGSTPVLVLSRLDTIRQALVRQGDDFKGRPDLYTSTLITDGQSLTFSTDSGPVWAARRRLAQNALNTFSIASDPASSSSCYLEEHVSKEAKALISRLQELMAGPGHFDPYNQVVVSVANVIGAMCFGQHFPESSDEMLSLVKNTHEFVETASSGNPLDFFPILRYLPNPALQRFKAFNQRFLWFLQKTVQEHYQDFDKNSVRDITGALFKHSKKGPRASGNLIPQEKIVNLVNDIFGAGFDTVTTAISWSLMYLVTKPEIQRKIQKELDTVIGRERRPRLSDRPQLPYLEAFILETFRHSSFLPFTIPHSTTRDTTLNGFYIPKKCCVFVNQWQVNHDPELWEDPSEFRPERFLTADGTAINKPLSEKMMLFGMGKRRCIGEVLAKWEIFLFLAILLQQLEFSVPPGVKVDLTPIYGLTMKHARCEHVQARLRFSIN
# [2] = Microsomal stability, CD-1 Mouse; type: in vitro ADME; conditions: Conc. 5 uM
# CYP 2C8 = biological target: T3, CYP 2C8 (Homo sapiens, UniProt P10632); experiment: CYP inhibition 2C8; type: in vitro ADME; set-up: unit not given here; conditions: Conc. 10 uM
# T3 sequence (P10632 1-490): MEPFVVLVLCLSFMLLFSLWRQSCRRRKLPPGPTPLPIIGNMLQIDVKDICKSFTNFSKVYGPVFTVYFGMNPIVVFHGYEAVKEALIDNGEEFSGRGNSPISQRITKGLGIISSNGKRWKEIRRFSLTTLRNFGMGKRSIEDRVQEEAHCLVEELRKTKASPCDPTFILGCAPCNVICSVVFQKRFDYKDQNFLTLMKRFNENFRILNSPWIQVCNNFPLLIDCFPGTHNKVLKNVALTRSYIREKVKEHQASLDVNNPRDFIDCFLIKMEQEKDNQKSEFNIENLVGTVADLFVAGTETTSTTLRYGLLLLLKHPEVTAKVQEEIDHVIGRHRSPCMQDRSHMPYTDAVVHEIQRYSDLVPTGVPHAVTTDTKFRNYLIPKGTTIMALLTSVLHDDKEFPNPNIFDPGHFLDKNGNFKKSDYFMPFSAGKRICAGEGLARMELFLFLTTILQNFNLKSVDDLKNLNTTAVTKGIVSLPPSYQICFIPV
# CYP 2D6 = CYP 2D6 (Homo sapiens, UniProt P10635); experiment: CYP inhibition 2D6; type: in vitro ADME; set-up: unit not given here; conditions: Conc. 10 uM
# Chain of CYP 2D6 (P10635 whole entry): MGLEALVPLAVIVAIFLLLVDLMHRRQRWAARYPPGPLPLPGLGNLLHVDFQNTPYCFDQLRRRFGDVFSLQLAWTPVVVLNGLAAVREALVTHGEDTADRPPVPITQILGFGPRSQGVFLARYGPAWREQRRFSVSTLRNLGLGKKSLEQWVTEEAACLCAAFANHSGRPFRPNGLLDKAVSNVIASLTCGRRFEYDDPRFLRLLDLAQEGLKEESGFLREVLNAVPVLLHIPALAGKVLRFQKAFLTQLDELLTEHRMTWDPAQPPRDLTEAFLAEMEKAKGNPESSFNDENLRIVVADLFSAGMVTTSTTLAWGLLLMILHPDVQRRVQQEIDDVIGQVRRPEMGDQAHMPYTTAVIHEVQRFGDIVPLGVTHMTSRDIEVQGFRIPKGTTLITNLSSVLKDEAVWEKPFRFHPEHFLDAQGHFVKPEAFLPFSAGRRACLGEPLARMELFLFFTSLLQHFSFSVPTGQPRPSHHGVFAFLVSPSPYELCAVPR
# CYP 2C9 = CYP 2C9 (Homo sapiens, UniProt P11712); experiment: CYP inhibition 2C9; type: in vitro ADME; set-up: unit not given here; conditions: Conc. 10 uM
# Chain of CYP 2C9 (P11712 whole entry): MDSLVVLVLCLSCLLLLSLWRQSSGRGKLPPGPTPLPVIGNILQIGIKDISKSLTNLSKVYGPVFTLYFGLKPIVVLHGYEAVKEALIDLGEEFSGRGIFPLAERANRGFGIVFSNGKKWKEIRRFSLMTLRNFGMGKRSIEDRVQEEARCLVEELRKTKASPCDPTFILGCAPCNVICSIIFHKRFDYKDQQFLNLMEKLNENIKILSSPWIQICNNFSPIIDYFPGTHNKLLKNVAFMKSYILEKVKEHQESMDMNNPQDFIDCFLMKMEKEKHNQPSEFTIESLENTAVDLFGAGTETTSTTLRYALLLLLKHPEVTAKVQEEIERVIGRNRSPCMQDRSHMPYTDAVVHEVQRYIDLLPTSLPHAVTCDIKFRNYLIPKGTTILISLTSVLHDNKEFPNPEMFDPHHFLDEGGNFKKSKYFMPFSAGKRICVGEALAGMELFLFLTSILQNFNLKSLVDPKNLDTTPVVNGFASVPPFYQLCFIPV
# CYP 2B6 = biological target: T4, CYP 2B6 (Homo sapiens, UniProt P20813); experiment: CYP inhibition 2B6; type: in vitro ADME; set-up: unit not given here; conditions: Conc. 10 uM
# T4 sequence (P20813 1-491): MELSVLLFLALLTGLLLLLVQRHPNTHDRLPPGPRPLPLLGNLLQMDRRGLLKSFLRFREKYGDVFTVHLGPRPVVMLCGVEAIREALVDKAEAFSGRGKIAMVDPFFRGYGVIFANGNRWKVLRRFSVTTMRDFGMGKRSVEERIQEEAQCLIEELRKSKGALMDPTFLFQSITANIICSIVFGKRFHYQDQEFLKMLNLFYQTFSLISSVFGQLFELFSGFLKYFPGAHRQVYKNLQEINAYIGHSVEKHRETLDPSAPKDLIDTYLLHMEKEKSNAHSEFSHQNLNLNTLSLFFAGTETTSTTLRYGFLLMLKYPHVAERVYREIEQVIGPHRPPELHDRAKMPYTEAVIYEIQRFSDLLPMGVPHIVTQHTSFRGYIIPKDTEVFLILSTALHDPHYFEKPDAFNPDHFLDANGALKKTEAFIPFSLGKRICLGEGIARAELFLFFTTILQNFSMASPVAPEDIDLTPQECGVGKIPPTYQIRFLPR
# Caco2 permeability = type: in vitro ADME; conditions: human, Caco-2, Conc. 5 uM
# [3] = Microsomal stability, Human; type: in vitro ADME; conditions: Conc. 5 uM
# H1975 = experiment: Cell viability, MTT assay, H1975; type: cell-based; conditions: Homo sapiens, NCI-H1975, H1975 (Lung)
# Method: (§2) To measure cell viability, cell titer glow (CTG, Promega CellTiter-Glo 2.0 Assay) and MTT assays (SigmaAldrich, Cell Proliferation Kit I) were performed. Briefly, cells were serum starved overnight prior to seeding in 96-well plates. Following 24 h incubation, cells were treated with increasing concentrations of JGJ compounds for 96 hr. At assay read-out, CellTiter-Glo reagent was added and luminescence was measured after 10-minutes incubation at room temperature. For the MTT assay, MTT labeling reagent was added and incubated for 4 h. Subsequently, medium was removed and 50 μL DMSO was added to solubilize the crystals, and absorbance was measured at 570 nm. Cell viability was calculated as (Sample-Background)/(Control-Background).
# A549 = experiment: Cell viability, MTT assay, A549; type: cell-based; conditions: Homo sapiens, A549 (Lung)
# Method: as §2
# [4] = microsomes, read-out: Microsomal stability T½
smiles,measurement,setting,value
"Cc1cnc2ccc(-c3cccc([N+](=O)[O-])c3)nn12 [JGJ005, 3-Methyl-6-(3-nitrophenyl)imidazo[1,2-b]pyridazine]",Inhibition of LIN28B binding to pre-let-7a (FRET signal),[1],greater inhibition of the LIN28B/pre-let-7a2 binding than the original compound LN1632
"CC(=O)N(C)c1cccc(-c2ccc3ncc(C)n3n2)c1 [JGJ008, N-Methyl-N-(3-(3-methylimidazo[1,2-b]pyridazin-6-yl)phenyl)acetamide]",Inhibition of LIN28B binding to pre-let-7a (FRET signal),[1],greater inhibition of the LIN28B/pre-let-7a2 binding than the original compound LN1632
"CC(=O)Nc1cc(F)cc(-c2ccc3ncc(C)n3n2)c1 [JGJ026, N-(3-Fluoro-5-(3-methylimidazo[1,2-b]pyridazin-6-yl)phenyl)acetamide]",Inhibition of LIN28B binding to pre-let-7a (FRET signal),[1],inhibit LIN28's RNA-binding capacity significantly more than compound LN1632
same,Upregulation of mature let-7 miRNAs,mature let-7 miRNAs,upregulated mature let-7 miRNAs at significantly lower doses than LN1632
same,CYP inhibition 2C19,CYP 2C19,35
same,CYP inhibition 1A2,CYP 1A2,96.2
same,Microsomal stability % Remaining at T30,[2],T30 = 17%
same,microsomal CLint at 5 uM,[2]; microsomes,118 µL/min/mg
same,half-life at 5 uM,[2]; [4],11.8 min
same,CYP inhibition 2C8,CYP 2C8,61.1
same,CYP inhibition 2D6,CYP 2D6,67.8
same,CYP inhibition 2C9,CYP 2C9,48.8
same,CYP inhibition 2B6,CYP 2B6,30.9
same,Papp A→B at 5 uM,Caco2 permeability,27.2 ×10⁻⁶ cm/s
same,Papp B→A at 5 uM,Caco2 permeability,25 ×10⁻⁶ cm/s
same,efflux ratio at 5 uM,Caco2 permeability,0.6
same,recovery at 5 uM,Caco2 permeability; read-out: Caco2 Mean A-B % Recovery,84%
same,Microsomal stability % Remaining at T30,[3],T30 = 54.7%
same,microsomal CLint at 5 uM,[3]; microsomes,38.2 µL/min/mg
same,half-life at 5 uM,[3]; [4],36.2 min
"Nc1cccc(-c2ccc3ncc(-c4ccccc4)n3c2)c1 [JGJ032, 3-(3-Phenylimidazo[1,2-a]pyridin-6-yl)aniline]",Inhibition of LIN28B binding to pre-let-7a (FRET signal),[1],inhibit LIN28's RNA-binding capacity significantly more than compound LN1632
"C=CC(=O)Nc1cc(Nc2nccc(-c3cn(C)c4ccccc34)n2)c(OC)cc1N(C)CCN(C)C [Osimertinib, reference compound]",IC50,H1975,21 µM
same,IC50,A549,11 µM
